The source of these data is patent US10420740B2, “Baclofen formulations and methods for making same” (SAOL INTERNATIONAL LIMITED, priority 2011, dated 2019).

A short description of data set [1]: Comparison of R isomer and racemic baclofen for solubility, stability and pH. It is filed as physicochemical. Conditions: data not shown. An excerpt:
Accordingly, the Examples presented herein, which employed a racemic mixture, are also applicable to the L-isomer […].

For data set [2] the following is noted: therapeutically effective intrathecal concentrations, injected into the intrathecal space of a patient; cited from earlier work.
A short description of data set [3]: pH profile of baclofen prior to steam sterilization and 4-CPP impurity levels post-steam sterilization. The arrangement: unit not given here. It is filed as physicochemical. The following applies: 4-CPP post-steam sterilization. An excerpt:
In some embodiments, the present application provides methods and baclofen formulations having low 4-CPP concentrations by controlling the pH of the baclofen solution prior to steam sterilization, where the pH is in the range of between about 4.0 to about 7.0, the amount of 4-CPP formed is reduced, when the pH is raised to between about 5.0 to about 7.0 after heat sterilization. In some embodiments, the 4-CPP impurity levels are low at a pH of between about 4.0 to about 4.5. The pH profile of the baclofen, prior to steam sterilization and the 4-CPP impurity levels post-steam sterilization are shown below in Table A.

The nature of data set [4]: Stability of baclofen in sulfate or phosphate solutions over 9 weeks. Conditions: phosphate or sulfate buffer with NaCl, pH 6, aqueous buffer. It is filed as physicochemical. The procedure:
The formulations were stored at 37° C., ambient temperature, and 4° C. over 9 weeks. pH, drug concentration, and 4-CPP were measured. Physical properties, such as particulate, precipitation, color and the like were observed.

For data set [5] the following is noted: reported by some sources; equilibrium with particulate baclofen present; cited from earlier work.
A short description of data set [6]: Rotarod (impaired motor skills) after intrathecal delivery to rats. It is filed as in vivo. Conditions: equivalent doses, data not shown. The protocol: Studies were performed to examine the effects of different baclofen compositions delivered intrathecally to rats. In one study, the therapeutic response mediated by spinal GABA-b receptors (thermal analgesia) with a nonspecific side effect (impaired motor skills on the rotarod) caused by L or DL-baclofen were compared. Equivalent doses of L-baclofen and DL-baclofen (adjusted to deliver the same amount of L-baclofen) produced very similar analgesic activity in the thermal nociception assay, while D-baclofen was ineffective (data not shown).

For orientation: solubility means the concentration that dissolves in the medium under given conditions.

`NC[C@H](CC(=O)O)c1ccc(Cl)cc1` (single isomer, unassigned) [R isomer]: the “solubility, stability and pH relative to racemic mixtures of baclofen” value in data set [1] is “behave essentially the same”.

With `NCC(CC(=O)O)c1ccc(Cl)cc1` (stereo not shown) [Baclofen, 4-amino-3-(p-chlorophenyl)butyric acid], the “plasma concentrations, intrathecal relative to oral administration” value in data set [2] is given as 100 times less. Besides, the “Impurity Level of 4-CPP” value in data set [3] (pH 4.0 prior to steam sterilization) is recorded as 1.7; in data set [3] (pH 4.2 prior to steam sterilization), 1.3; in data set [3] (pH 4.4 prior to steam sterilization), 1.1; in data set [3] (pH 4.6 prior to steam sterilization) it was 0.7; in data set [3] (pH 4.8 prior to steam sterilization), 0.5; in data set [3] (pH 5.0 prior to steam sterilization), 0.4. The “Impurity Level of 4-CPP” value in data set [3] (pH 5.2 prior to steam sterilization) was 0.4; in data set [3] (pH 5.4 prior to steam sterilization) it was 0.5; in data set [3] (pH 5.6 prior to steam sterilization) it was 0.6; in data set [3] (pH 5.8 prior to steam sterilization), 0.7; in data set [3] (pH 6.0 prior to steam sterilization) it was 0.8; in data set [3] (pH 6.2 prior to steam sterilization), 0.9. The “Impurity Level of 4-CPP” value in data set [3] (pH 6.4 prior to steam sterilization) is listed as 1.1; in data set [3] (pH 6.6 prior to steam sterilization) it was 1.2; in data set [3] (pH 6.8 prior to steam sterilization), 1.4; in data set [3] (pH 7.0 prior to steam sterilization), 1.5. In data set [4], the solubility at 9 weeks was not below 4000 µg/mL. In addition, the “upper limit on room temperature aqueous solubility” value in data set [5] is listed as “about 4 mg/mL”.

For `NC[C@H](CC(=O)O)c1ccc(Cl)cc1` [D-baclofen], in data set [6], the “motor impairment on the rotarod” value is reported as “no significant effect”.

As for `NC[C@H](CC(=O)O)c1ccc(Cl)cc1` [L-baclofen], in data set [6], the “motor impairment on the rotarod” value is “statistically less motor impairment on the rotarod than DL-baclofen”.
